The subject of assay [1] is OCI-Ly10. As to the kind of experiment: CTG cell viability assay - OCI-Ly10. The class given is cell-based. The note with it: Homo sapiens, 96 h; OCI-Ly10, 4 days. As for the experimental part: Compound-mediated viability effect on OCI-Ly10 or SUDHL-2 was quantitatively determined using the CellTiter-Glo® Luminescent Cell Viability Assay kit from Promega (Catalog number G7570) following manufacturer's recommended procedures. Briefly, OCI-Ly10 or SUDHL-2 cells were seeded into 384 well plates (Grenier Bio-One, Catalog number 781080) with a density of 10,000 cells per well. Compounds were then added to the assay plate with final top concentration of 10 μM and 1:3 dilution series with total of 9 doses. The final DMSO concentration was normalized to 0.2%. The assay plates were incubated at 37° C. for 4 days under 5% CO2. Then the assay plate was equilibrated at room temperature for 10 minutes. To determine cell viability, 30 μL CellTiter Glo reagent was added to each well and the assay plate was centrifuged at 1000 rpm for 30 second, incubated at room temperature for 10 min, and analyzed by detecting the luminescence using a multimode plate reader (EnVision 2105, PerkinElmer). The data was then analyzed by software Prism 7.0 from GraphPad and the dose response curves were fit using a three-parameter logistic equation to calculate IC50.

The target of assay [2] is T1, IRAK4 (Homo sapiens, UniProt Q9NWZ3).
T1 construct: endogenous in cells; host or cells: OCI-Ly10
T1 sequence (Q9NWZ3 1-460): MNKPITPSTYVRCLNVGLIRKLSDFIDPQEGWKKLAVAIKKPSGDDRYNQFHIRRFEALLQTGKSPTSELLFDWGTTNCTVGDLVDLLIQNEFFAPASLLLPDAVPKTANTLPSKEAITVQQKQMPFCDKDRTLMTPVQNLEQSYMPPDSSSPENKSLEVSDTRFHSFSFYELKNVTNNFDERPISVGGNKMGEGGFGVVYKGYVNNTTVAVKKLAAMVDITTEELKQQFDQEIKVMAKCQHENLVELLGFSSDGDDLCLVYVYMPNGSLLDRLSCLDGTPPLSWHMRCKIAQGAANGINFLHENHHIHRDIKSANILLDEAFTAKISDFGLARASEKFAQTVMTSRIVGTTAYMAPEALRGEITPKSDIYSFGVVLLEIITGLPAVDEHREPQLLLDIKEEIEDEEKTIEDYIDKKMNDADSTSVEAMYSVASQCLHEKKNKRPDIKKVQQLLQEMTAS
As to the kind of experiment: IRAK4 MSD degradation in OCI-Ly10. It counts as cell-based. The note with it: OCI-Ly10 cells, 24 hrs. On the procedure: Degradation of IRAK4 in OCI-Ly10 was quantitatively measured using Meso Scale Discovery technology. OCI-Ly10 cells were seeded in 96-well plates (Corning 3799) with a density of 300,000 cells per well in 100 μL fresh media. Compounds were then added to the assay plates with a final top concentration of 1 to 10 μM in a 1:3 dilution series with total of 8 doses. The assay plates were then incubated for 4 to 24 hours at 37° C. under 5% CO2. The assay plates were then centrifuged for 5 minutes and the cell pellets were treated with 100 μL/well RIPA lysis buffer (Boston BioProducts BP-115D) with proteinase inhibitors. To prepare MSD assay plates (Meso Scale Discovery Catalog number L15XA-3), the plates were coated with 2 μg/mL capture antibody (mouse Anti-IRAK4 antibody [2H9], ab119942) in PBS, at 40 μL/well. The plates were then incubated overnight at 4° C., washed 3 times with 150 μL/well TBST buffer (Cell Signaling Technology, Catalog number 9997S) and blocked with 150 μL/well blocking buffer (Meso Scale Discovery Catalog number R93BA-4). Cell lysates were then added to MSD assay plates and the plates were incubated at room temperature for 1 hour. The plates were then washed 3 times with 150 μL/well TBST buffer and […] primary detection antibody (rabbit Anti-IRAK4 antibody [Y279], from Abcam. Catalog number ab32511, 1 μg/mL). The assay plates were then incubated at room temperature for 1 hour, washed 3 times with 150 μL/well TBST buffer and 25 μL/well secondary detection antibody, SULFO-TAG anti-rabbit antibody were added (anti rabbit antibody from Meso Scale Discovery, Catalog number R32AB-1, 1 μg/mL). The assay plates were then incubated at room temperature for 1 hour, washed 3 times with 150 μL/well TBST buffer, and 150 μL/well MSD reading buffer (Meso Scale Discovery catalog number R92TC-2) was added. The plates were then analyzed by a MSD reader (Meso Scale Discovery, Model Quick Plex SQ 120). The data was then analyzed by software Prism 7.0 from GraphPad and the dose-depended IRAK4 degradation were fit using a three-parameter logistic equation to calculate DC50.

For assay [3], the system named is MYD88-mutant and wild type DLBCL PDX models. The note with it: MYD88 MT model LY0257 with mutation in Aiolos; cited from earlier work.

The source of these data is US11857535B2, “Methods of treating mutant lymphomas” (Kymera Therapeutics, Inc., priority 2020, dated 2024).

pIC50: −log10 of the molar value.

Regarding `CC(C)(O)c1cc2nc([C@H]3CC[C@H](CN4CC5(CC(CCNc6cccc7c6C(=O)N([C@@H]6CCC(=O)NC6=O)C7=O)C5)C4)CC3)sc2cc1NC(=O)c1cccc(C(F)(F)F)n1` (single isomer, unassigned) [Compound (R)-A], the pIC50 (in general, the IC50 on a negative log10 scale, so that one unit is a factor of ten) in assay [1] was over 7.30. For the same compound, the DC50 (as a rule, the midpoint of the concentration-degradation curve) in assay [2] is under 0.05 µM. `CC(C)(O)c1cc2nc([C@H]3CC[C@H](CN4CC5(CC(CCNc6cccc7c6C(=O)N([C@H]6CCC(=O)NC6=O)C7=O)C5)C4)CC3)sc2cc1NC(=O)c1cccc(C(F)(F)F)n1` (single isomer, unassigned) [Compound (S)-A]: the negative logarithm of the IC50 (pIC50) in assay [1] was over 7.30. The compound further gave a DC50 in assay [2] of under 0.05 µM. For `Nc1cccc2c1CN(C1CCC(=O)NC1=O)C2=O` (centres unmarked) [lenalidomide], in assay [3], the “sensitivity of PDX model LY0257” value is listed as “insensitive”.
